This passage reports IC50 results from US7659263B2, “Thienopyrrole compound and use thereof as HCV polymerase inhibitor” (Japan Tobacco Inc., priority 2004, dated 2010).

In one experiment the target is T1, NS5B 1a (Hepatitis C virus genotype 1a, UniProt P27958).
T1 construct: NS5B 1a
Description: Assay of enzyme (HCV polymerase) inhibitory activity, NS5B 1a. It counts as biochemical. As to conditions: HCV polymerase NS5B 1a; [3H]UTP incorporation, 25° C., 90 min.

A further experiment addresses T2, NS5B 1b (Hepatitis C virus genotype 1b, UniProt P26663).
T2 construct: a region encoding NS5B (J Virol 1991 March, 65(3), 1105-13, 544 amino acids after deletion of 47 amino acids on the C-terminal); 6 His (C); made in house; host or cells: Escherichia coli
Description: Assay of enzyme (HCV polymerase) inhibitory activity, NS5B 1b. It counts as biochemical. An excerpt:
The evaluation of the HCV polymerase inhibitory activity of the compound of the present invention is explained in the following. This polymerase is an enzyme coded for by the non-structural protein region called NS5B on the genome RNA of HCV (EMBO J., 15:12-22, 1996).
i) Preparation of enzyme (HCV polymerase)
Using, as a template, a cDNA clone corresponding to the full length genome RNA of HCV BK strain obtained from the blood of a patient with hepatitis C, a region encoding NS5B (J Virol 1991 March, 65(3), 1105-13, 544 amino acids after deletion of 47 amino acids on the C-terminal) was amplified by PCR. The objective gene was prepared by adding a 6 His tag {base pair encoding 6 continuous histidine (His)} to the 3′ end thereof and transformed to Escherichia coli. The Escherichia coli capable of producing the objective protein was cultured. The obtained cells were suspended in a buffer solution and crushed in a microfluidizer. The supernatant was obtained by centrifugation and applied to various column chromatographys {mono-S, Sephacryl S-200 (Pharmacia)}, inclusive of metal chelate chromatography, to give a standard enzyme product.
ii) Synthesis of Substrate RNA
Using a synthetic primer designed based on the sequence of HCV genomic 3′ untranslated region, a DNA fragment (148 bp) containing polyU and 3′X sequence was entirely synthesized and cloned into plasmid pBluescript SK II(+) (Stratagene). The cDNA encoding full length NS5B, which was prepared in i) above, was digested with restriction enzyme KpnI to give a cDNA fragment containing the nucleotide sequence of from the restriction enzyme cleavage site to the termination codon. This cDNA fragment was inserted into the upstream of 3′ untranslated region of the DNA in pBluescript SK II(+) and ligated. The about 450 bp inserted DNA sequence was used as a template in the preparation of substrate RNA. This plasmid was cleaved immediately after the 3′X sequence, linearized and purified by phenol-chloroform treatment and ethanol precipitation to give DNA.
RNA was synthesized (37° C., 3 hr) by run-off method using this purified DNA as a template, a promoter of pBluescript SK II(+), MEGAscript RNA synthesis kit (Ambion) and T7 RNA polymerase. DNase I was added and the mixture was incubated for 1 hr. The template DNA was removed by decomposition to give a crude RNA product. This crude product was treated with phenol-chloroform and purified by ethanol precipitation to give the objective substrate RNA.
This RNA was applied to formaldehyde denaturation agarose gel electrophoresis to confirm the quality thereof and preserved at −80° C. iii) Assay of enzyme (HCV polymerase) inhibitory activity A test substance (compound of the present invention) and a reaction mixture (30 μl) having the following composition were reacted at 25° C. for 90 min.
10% Trichloroacetic acid at 4° C. and 1% sodium pyrophosphate solution (150 μl) were added to this reaction mixture to stop the reaction. The reaction mixture was left standing in ice for 15 min to insolubilize RNA. This RNA was trapped on a glass filter (Whatman GF/C and the like) upon filtration by suction. This filter was washed with a solution containing 1% trichloroacetic acid and 0.1% sodium pyrophosphate, washed with 90% ethanol and dried. A liquid scintillation cocktail (Packard) was added and the radioactivity of RNA synthesized by the enzyme reaction was measured on a liquid scintillation counter.
The HCV polymerase inhibitory activity (IC50) of the compound of the present invention was calculated from the values of radioactivity of the enzyme reaction with and without the 20 test substance. […]

The structures appear in SMILES notation. Where a name gives a salt, the structure may show the parent alone.

T2 sequence (P26663 2420-2963): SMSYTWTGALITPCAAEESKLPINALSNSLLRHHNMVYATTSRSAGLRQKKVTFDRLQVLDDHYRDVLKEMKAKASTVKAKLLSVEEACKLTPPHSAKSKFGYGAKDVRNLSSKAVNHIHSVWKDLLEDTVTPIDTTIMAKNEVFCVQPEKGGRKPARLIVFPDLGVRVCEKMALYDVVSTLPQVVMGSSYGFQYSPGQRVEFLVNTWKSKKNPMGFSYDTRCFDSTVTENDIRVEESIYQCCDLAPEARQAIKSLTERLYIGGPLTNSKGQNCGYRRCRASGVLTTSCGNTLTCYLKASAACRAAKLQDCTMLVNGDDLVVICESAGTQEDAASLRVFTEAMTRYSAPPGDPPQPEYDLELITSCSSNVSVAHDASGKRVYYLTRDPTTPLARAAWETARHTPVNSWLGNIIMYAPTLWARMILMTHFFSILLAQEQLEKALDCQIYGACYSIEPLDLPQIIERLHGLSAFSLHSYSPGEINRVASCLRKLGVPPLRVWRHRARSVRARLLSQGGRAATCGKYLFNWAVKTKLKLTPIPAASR
T1 sequence (P27958 2421-3011): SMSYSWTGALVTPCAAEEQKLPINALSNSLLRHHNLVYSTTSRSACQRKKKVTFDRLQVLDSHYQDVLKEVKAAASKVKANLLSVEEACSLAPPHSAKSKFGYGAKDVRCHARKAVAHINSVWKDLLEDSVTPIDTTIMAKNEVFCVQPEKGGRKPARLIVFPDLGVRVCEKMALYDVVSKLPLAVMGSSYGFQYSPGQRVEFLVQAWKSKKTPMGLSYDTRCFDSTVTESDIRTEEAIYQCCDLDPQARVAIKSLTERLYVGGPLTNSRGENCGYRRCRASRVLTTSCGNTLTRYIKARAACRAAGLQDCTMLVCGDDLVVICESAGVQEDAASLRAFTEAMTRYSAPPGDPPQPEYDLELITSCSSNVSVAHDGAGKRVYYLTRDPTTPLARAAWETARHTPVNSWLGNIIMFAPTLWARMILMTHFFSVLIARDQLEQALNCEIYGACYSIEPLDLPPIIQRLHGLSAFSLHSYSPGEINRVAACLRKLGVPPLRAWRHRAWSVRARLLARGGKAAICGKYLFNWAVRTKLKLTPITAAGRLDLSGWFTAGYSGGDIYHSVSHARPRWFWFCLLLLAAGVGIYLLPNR

As usually defined, the IC50 is the midpoint of a concentration-inhibition curve. Higher therefore signals weaker potency in that assay. Regarding `Cc1ccc2c(c1)N(CCN1CCCOCC1)CCn1c-2c(C2CCCCC2)c2sc(C(=O)O)cc21` [Example 28, 11-cyclohexyl-8-methyl-6-[2-(1,4-oxazepan-4-yl)ethyl]-5,6-dihydro-4H-1-thia-3b,6-diazabenzo[e]cyclopenta[a]azulene-2-carboxylic acid dihydrochloride], the IC50 against NS5B 1a and on NS5B 1b was 10 to 100 nM throughout.

Regarding `O=C(O)c1cc2c(s1)c(C1CCCCC1)c1n2CCN(CCN2CCCCCCC2)c2cc(Cl)ccc2-1` [Example 29, 6-[2-(azocan-1-yl)ethyl]-8-chloro-11-cyclohexyl-5,6-dihydro-4H-1-thia-3b,6-diazabenzo[e]cyclopenta[a]azulene-2-carboxylic acid dihydrochloride], the IC50 at NS5B 1a and against NS5B 1b was 10 to 100 nM in each case.

Regarding `CC1CCCN(CCN2CCn3c(c(C4CCCCC4)c4sc(C(=O)O)cc43)-c3ccc(Cl)cc32)C1` (stereo not shown) [Example 30, 8-chloro-11-cyclohexyl-6-[2-(3-methylpiperidin-1-yl)ethyl]-5,6-dihydro-4H-1-thia-3b,6-diazabenzo[e]cyclopenta[a]azulene-2-carboxylic acid dihydrochloride], the IC50 at NS5B 1a was 10 to 100 nM; on NS5B 1b it was under 10 nM.

On to `COCC[C@@H]1CCCN(CCN2CCn3c(c(C4CCCCC4)c4sc(C(=O)O)cc43)-c3ccc(Cl)cc32)C1` [Example 31, (S)-8-chloro-11-cyclohexyl-6-{2-[3-(2-methoxyethyl)piperidin-1-yl]ethyl}-5,6-dihydro-4H-1-thia-3b,6-diazabenzo[e]cyclopenta[a]azulene-2-carboxylic acid dihydrochloride], for which the IC50 at NS5B 1a was 10 to 100 nM; against NS5B 1b, under 10 nM.

For `O=C(O)c1cc2c(s1)c(C1CCCCC1)c1n2CCN(CCN2CCCOCC2)c2cc(Cl)ccc2-1` [Example 32, 8-chloro-11-cyclohexyl-6-[2-(1,4-oxazepan-4-yl)ethyl]-5,6-dihydro-4H-1-thia-3b,6-diazabenzo[e]cyclopenta[a]azulene-2-carboxylic acid dihydrochloride], the figures for the half-maximal inhibitory concentration (IC50) against NS5B 1a and against NS5B 1b were 10 to 100 nM and under 10 nM, respectively.

In the case of `Cc1ccc2c(c1)N(CCN1CCN(C(=O)OC(C)(C)C)CC1)CCn1c-2c(C2CCCCC2)c2sc(C(=O)O)cc21` [Example 33, 6-[2-(4-tert-butoxycarbonylpiperazin-1-yl)ethyl]-11-cyclohexyl-8-methyl-5,6-dihydro-4H-1-thia-3b,6-diazabenzo[e]cyclopenta[a]azulene-2-carboxylic acid hydrochloride], the IC50 at NS5B 1a and against NS5B 1b was 10 to 100 nM each time.

For `CC(C)(C)OC(=O)N1CCN(CCN2CCn3c(c(C4CCCCC4)c4sc(C(=O)O)cc43)-c3ccc(Cl)cc32)CC1` [Example 34, 6-[2-(4-tert-butoxycarbonylpiperazin-1-yl)ethyl]-8-chloro-11-cyclohexyl-5,6-dihydro-4H-1-thia-3b,6-diazabenzo[e]cyclopenta[a]azulene-2-carboxylic acid hydrochloride], the concentration for half-maximal inhibition (IC50) against NS5B 1a and at NS5B 1b was 10 to 100 nM each time.

With `CCN1CCN(C(=O)CN2CCn3c(c(C4CCCCC4)c4sc(C(=O)O)cc43)-c3ccc(C)cc32)CC1` [Example 35, 11-cyclohexyl-6-[2-(4-ethylpiperazin-1-yl)-2-oxoethyl]-8-methyl-5,6-dihydro-4H-1-thia-3b,6-diazabenzo[e]cyclopenta[a]azulene-2-carboxylic acid dihydrochloride], the IC50 against NS5B 1a and on NS5B 1b was 10 to 100 nM each time.

On to `CCN1CCN(C(=O)CN2CCn3c(c(C4CCCCC4)c4sc(C(=O)O)cc43)-c3ccc(Cl)cc32)CC1` [Example 36, 8-chloro-11-cyclohexyl-6-[2-(4-ethylpiperazin-1-yl)-2-oxoethyl]-5,6-dihydro-4H-1-thia-3b,6-diazabenzo[e]cyclopenta[a]azulene-2-carboxylic acid dihydrochloride], for which the IC50 on NS5B 1a and on NS5B 1b was 10 to 100 nM each time.

With `COc1ccc2c(c1)OCCn1c-2c(C2CCCCC2)c2sc(C(=O)NC3(C(=O)Nc4ccc(/C=C/C(=O)O)cc4)CCC3)cc21` [Example 37, (E)-3-[4-({1-[(11-cyclohexyl-8-methoxy-4,5-dihydro-6-oxa-1-thia-3b-azabenzo[e]cyclopenta[a]azulene-2-carbonyl)amino]cyclobutanecarbonyl}amino)phenyl]acrylic acid], the IC50 against NS5B 1a and on NS5B 1b was 10 to 100 nM in each case.

With `Cc1ccc2c(c1)N(C)CCn1c-2c(C2CCCCC2)c2sc(C(=O)NC3(C(=O)Nc4ccc(/C=C/C(=O)O)cc4)CCC3)cc21` [Example 38, (E)-3-[4-({1-[(11-cyclohexyl-6,8-dimethyl-5,6-dihydro-4H-1-thia-3b,6-diazabenzo[e]cyclopenta[a]azulene-2-carbonyl)amino]cyclobutanecarbonyl)amino)phenyl]acrylic acid], the IC50 against NS5B 1a and at NS5B 1b was 10 to 100 nM throughout.

Regarding `CN1CCn2c(c(C3CCCCC3)c3sc(C(=O)NC4(C(=O)Nc5ccc(/C=C/C(=O)O)cc5)CCC4)cc32)-c2ccc(Cl)cc21` [Example 39, (E)-3-[4-({1-[(8-chloro-11-cyclohexyl-6-methyl-5,6-dihydro-4H-1-thia-3b,6-diazabenzo[e]cyclopenta[a]azulene-2-carbonyl)amino]cyclobutanecarbonyl}amino)phenyl]acrylic acid], the IC50 against NS5B 1a and against NS5B 1b was 10 to 100 nM in each case.

Regarding `COc1ccc2c(c1)OCCn1c-2c(C2CCCCC2)c2sc(C(=O)NC3(C(=O)Nc4cccc(/C=C/C(=O)O)c4)CCC3)cc21` [Example 40, (E)-3-[3-({1-[(11-cyclohexyl-8-methoxy-4,5-dihydro-6-oxa-1-thia-3b-azabenzo[e]cyclopenta[a]azulene-2-carbonyl)amino]cyclobutanecarbonyl}amino)phenyl]acrylic acid], the IC50 on NS5B 1a and against NS5B 1b was 10 to 100 nM in each case.

As for `CCOc1ccc2c(c1)OCCn1c-2c(C2CCCCC2)c2sc(C(=O)O)cc21` [Example 41, 11-cyclohexyl-8-ethoxy-4,5-dihydro-6-oxa-1-thia-3b-azabenzo[e]cyclopenta[a]azulene-2-carboxylic acid], the IC50 at NS5B 1a and against NS5B 1b was 10 to 100 nM in each case.

In the case of `O=C(O)c1cc2c(s1)c(C1CCCCC1)c1n2CCOc2c-1cccc2N(CCN1CCCCC1)CCN1CCCCC1` [Example 42, 7-{bis[2-(piperidin-1-yl)ethyl]amino}-11-cyclohexyl-4,5-dihydro-6-oxa-1-thia-3b-azabenzo[e]cyclopenta[a]azulene-2-carboxylic acid trihydrochloride], the results for the IC50 against NS5B 1a and at NS5B 1b were 10 to 100 nM and under 10 nM, respectively.

`CCOc1ccc2c(c1)OCCn1c-2c(C2CCCCC2)c2sc(C(=O)NC3(C(=O)Nc4ccc(/C=C/C(=O)O)cc4)CCC3)cc21` [Example 43, (E)-3-[4-({1-[(11-cyclohexyl-8-ethoxy-4,5-dihydro-6-oxa-1-thia-3b-azabenzo[e]cyclopenta[a]azulene-2-carbonyl)amino]cyclobutanecarbonyl}amino)phenyl]acrylic acid]: the IC50 at NS5B 1a and against NS5B 1b was 10 to 100 nM in each case.

On to `CCOc1ccc2c(c1)N(C)CCn1c-2c(C2CCCCC2)c2sc(C(=O)O)cc21` [Example 44, 11-cyclohexyl-8-ethoxy-6-methyl-5,6-dihydro-4H-1-thia-3b,6-diazabenzo[e]cyclopenta[a]azulene-2-carboxylic acid], for which the IC50 against NS5B 1a and against NS5B 1b was 10 to 100 nM throughout.
